In US20210299204A1 (priority 2020, published 2021):

Experiment: Adverse outcome after a Depo-Provera shot for endometrial treatment
Conditions: inventor themself, one shot, 1987; attributed to the preservative in the drug

Compound: CC(=O)O[C@]1(C(C)=O)CC[C@H]2[C@@H]3C[C@H](C)C4=CC(=O)CC[C@]4(C)[C@H]3CC[C@@]21C [Depo-Provera]
- adverse result of treatment: retinal atrophy
